PubChem BioAssay (NCI)
“And” between values parts separate entries of the source, which are not always exact repeats. Equal entries are not always repeated.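 GI50: concentration for 50% inhibition of growth. The concentration for full growth arrest is given as TGI.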

How the values were obtained:
Assay in all cases: growth of human tumour cells (NCI), 384-well format
SF-268 CNS = system: SF-268 CNS
NCI-H23 lung = system: NCI-H23 lung
NCI-H460 NSCLC = system: NCI-H460 NSCLC
CAKI-1 renal = system: CAKI-1 renal
SK-MEL-5 melanoma = system: SK-MEL-5 melanoma
SK-MEL-2 melanoma = system: SK-MEL-2 melanoma
HT29 colon = system: HT29 colon
U251 glioblastoma = system: U251 glioblastoma
SNB-19 CNS = system: SNB-19 CNS
A549 NSCLC = system: A549 NSCLC
SW-620 colon = system: SW-620 colon
T-47D breast = system: T-47D breast
UACC-62 melanoma = system: UACC-62 melanoma
RXF 393 renal = system: RXF 393 renal
SK-MEL-28 melanoma = system: SK-MEL-28 melanoma
NCI-H322M lung = system: NCI-H322M lung
UACC-257 melanoma = system: UACC-257 melanoma
PC-3 prostate = system: PC-3 prostate
SF-539 CNS = system: SF-539 CNS
HL-60(TB) leukemia = system: HL-60(TB) leukemia
SNB-75 CNS = system: SNB-75 CNS
TK-10 renal = system: TK-10 renal
HCT-116 colon = system: HCT-116 colon
SF-295 CNS = system: SF-295 CNS
786-0 renal = system: 786-0 renal
HOP-62 NSCLC = system: HOP-62 NSCLC
CCRF-CEM leukemia = system: CCRF-CEM leukemia
OVCAR-3 ovarian = system: OVCAR-3 ovarian
MCF7 breast = system: MCF7 breast
RPMI-8226 leukemia = system: RPMI-8226 leukemia
DU-145 prostate = system: DU-145 prostate
SN12C renal = system: SN12C renal
OVCAR-8 ovarian = system: OVCAR-8 ovarian
ACHN renal = system: ACHN renal
K-562 leukemia = system: K-562 leukemia
MDA-MB-231 breast = system: MDA-MB-231 breast
COLO 205 colon = system: COLO 205 colon
M14 melanoma = system: M14 melanoma
OVCAR-4 ovarian = system: OVCAR-4 ovarian
MOLT-4 leukemia = system: MOLT-4 leukemia
HCT-15 colon = system: HCT-15 colon
A498 renal = system: A498 renal
BT-549 breast = system: BT-549 breast
MALME-3M melanoma = system: MALME-3M melanoma
OVCAR-5 ovarian = system: OVCAR-5 ovarian
HOP-92 NSCLC = system: HOP-92 NSCLC
EKVX NSCLC = system: EKVX NSCLC
NCI-H522 lung = system: NCI-H522 lung
HCC-2998 colon = system: HCC-2998 colon
NCI-H226 lung = system: NCI-H226 lung
UO-31 renal = system: UO-31 renal
HS 578T breast = system: HS 578T breast
SK-OV-3 ovarian = system: SK-OV-3 ovarian
KM12 colon = system: KM12 colon
MDA-MB-435 melanoma = system: MDA-MB-435 melanoma
LOX IMVI melanoma = system: LOX IMVI melanoma
IGROV1 ovarian = system: IGROV1 ovarian
MDA-MB-468 breast = system: MDA-MB-468 breast
NCI/ADR-RES ovarian = system: NCI/ADR-RES ovarian
SR leukemia = system: SR leukemia

COc1c(OCCCN2CCOCC2)ccc2c3n(c(=NC(=O)c4cnc(N)nc4)nc12)CCN3
GI50 (SF-268 CNS): 132 nM and 268 nM
TGI (SF-268 CNS): 29100 nM
GI50 (NCI-H23 lung): 472 nM and 248 nM
TGI (NCI-H23 lung): > 50000 nM
GI50 (NCI-H460 NSCLC): 21.5 nM and 25.9 nM
TGI (NCI-H460 NSCLC): > 100000 nM
GI50 (CAKI-1 renal): 27 nM and 72.4 nM
TGI (CAKI-1 renal): 317 nM
GI50 (SK-MEL-5 melanoma): 69.8 nM and 95.1 nM
TGI (SK-MEL-5 melanoma): 197 nM and 431 nM
GI50 (SK-MEL-2 melanoma): 224 nM
TGI (SK-MEL-2 melanoma): 7360 nM
GI50 (HT29 colon): 22.9 nM
TGI (HT29 colon): > 50000 nM
GI50 (U251 glioblastoma): 314 nM and 510 nM
TGI (U251 glioblastoma): > 100000 nM
GI50 (SNB-19 CNS): 572 nM and 1040 nM
TGI (SNB-19 CNS): > 100000 nM
GI50 (A549 NSCLC): 67.7 nM and 54.1 nM
TGI (A549 NSCLC): 849 nM and 908 nM
GI50 (SW-620 colon): 270 nM and 656 nM
TGI (SW-620 colon): > 100000 nM
GI50 (T-47D breast): < 5 nM
TGI (T-47D breast): 25.6 nM and < 10.6 nM
GI50 (UACC-62 melanoma): 82 nM and 84.4 nM
TGI (UACC-62 melanoma): 237 nM and 362 nM
GI50 (RXF 393 renal): 174 nM and 47 nM
TGI (RXF 393 renal): 611 nM and 162 nM
GI50 (SK-MEL-28 melanoma): 71 nM and 56.2 nM
TGI (SK-MEL-28 melanoma): 2560 nM
GI50 (NCI-H322M lung): 93.3 nM and 38.9 nM
GI50 (UACC-257 melanoma): 172 nM and 201 nM
TGI (UACC-257 melanoma): 10300 nM and 3800 nM
GI50 (PC-3 prostate): 66.8 nM and 34.4 nM
GI50 (SF-539 CNS): 103 nM and 96.9 nM
GI50 (HL-60(TB) leukemia): < 5 nM
GI50 (SNB-75 CNS): 7.16 nM and < 13.2 nM
TGI (SNB-75 CNS): 31.7 nM and 81.4 nM
GI50 (TK-10 renal): 22.8 nM and 28 nM
TGI (TK-10 renal): 583 nM and 612 nM
GI50 (HCT-116 colon): 101 nM and 163 nM
TGI (HCT-116 colon): > 50000 nM
GI50 (SF-295 CNS): 177 nM and 135 nM
GI50 ([…]-0 renal): 177 nM and 242 nM
TGI (786-0 renal): 14000 nM
GI50 (HOP-62 NSCLC): 167 nM and 385 nM
TGI (HOP-62 NSCLC): > 100000 nM
GI50 (CCRF-CEM leukemia): 18 nM and 38.6 nM
TGI (CCRF-CEM leukemia): 5610 nM and 1330 nM
GI50 (OVCAR-3 ovarian): 69 nM and 43.9 nM
TGI (OVCAR-3 ovarian): 556 nM and 619 nM
GI50 (MCF7 breast): < 5 nM
TGI (MCF7 breast): > 50000 nM
GI50 (RPMI-8226 leukemia): 129 nM and 122 nM
TGI (RPMI-8226 leukemia): 441 nM and 285 nM
GI50 (DU-145 prostate): 128 nM and 164 nM
TGI (DU-145 prostate): > 100000 nM
GI50 (SN12C renal): 77.7 nM
TGI (SN12C renal): > 50000 nM
GI50 (OVCAR-8 ovarian): 118 nM and 219 nM
TGI (OVCAR-8 ovarian): > 50000 nM
GI50 (ACHN renal): 26.6 nM and 108 nM
GI50 (K-562 leukemia): 2250 nM
TGI (K-562 leukemia): > 50000 nM
GI50 (MDA-MB-231 breast): 1960 nM and 219 nM
GI50 (COLO 205 colon): 26.9 nM and 48.5 nM
TGI (COLO 205 colon): 3670 nM and 3440 nM
GI50 (M14 melanoma): 190 nM and 158 nM
TGI (M14 melanoma): > 50000 nM
GI50 (OVCAR-4 ovarian): 419 nM and 388 nM
TGI (OVCAR-4 ovarian): 15700 nM and 3430 nM
GI50 (MOLT-4 leukemia): 17.3 nM and < 11.8 nM
TGI (MOLT-4 leukemia): 101 nM and 38.5 nM
GI50 (HCT-15 colon): 47.8 nM and 78.3 nM
TGI (HCT-15 colon): > 50000 nM
GI50 (A498 renal): 53.9 nM and 68.3 nM
TGI (A498 renal): 146 nM and 470 nM
GI50 (BT-549 breast): 102 nM and 65.3 nM
TGI (BT-549 breast): 2870 nM and 648 nM
GI50 (MALME-3M melanoma): 74.5 nM and 22.8 nM
TGI (MALME-3M melanoma): 396 nM and 204 nM
GI50 (OVCAR-5 ovarian): 51.9 nM and 152 nM
TGI (OVCAR-5 ovarian): > 100000 nM
GI50 (HOP-92 NSCLC): 38.5 nM and 35 nM
GI50 (EKVX NSCLC): 22 nM and 56.8 nM
TGI (EKVX NSCLC): 289 nM and 1160 nM
GI50 (NCI-H522 lung): 147 nM and 151 nM
TGI (NCI-H522 lung): > 50000 nM and 5610 nM
GI50 (HCC-2998 colon): 82.3 nM and 138 nM
TGI (HCC-2998 colon): 5440 nM and 766 nM
GI50 (NCI-H226 lung): 160 nM and 90.8 nM
TGI (NCI-H226 lung): > 50000 nM
GI50 (UO-31 renal): 30.5 nM
TGI (UO-31 renal): 258 nM
GI50 (HS 578T breast): 55.7 nM and 30 nM
TGI (HS 578T breast): 289 nM and 347 nM
GI50 (SK-OV-3 ovarian): 10.1 nM
TGI (SK-OV-3 ovarian): 63.7 nM
GI50 (KM12 colon): 436 nM and 316 nM
TGI (KM12 colon): > 100000 nM
GI50 (MDA-MB-435 melanoma): 237 nM
TGI (MDA-MB-435 melanoma): > 100000 nM
GI50 (LOX IMVI melanoma): 154 nM
TGI (LOX IMVI melanoma): 1210 nM
GI50 (IGROV1 ovarian): < 5 nM
TGI (IGROV1 ovarian): 16.5 nM and 29.9 nM
GI50 (MDA-MB-468 breast): 15.3 nM and 20.4 nM
TGI (MDA-MB-468 breast): 79.7 nM and 138 nM
GI50 (NCI/ADR-RES ovarian): 1970 nM and 424 nM
TGI (NCI/ADR-RES ovarian): > 100000 nM
GI50 (SR leukemia): 215 nM and 198 nM
TGI (SR leukemia): 3020 nM and 714 nM
